Read-outs that look alike come from different tables or passages of the source.
Key:
[1] = Microsomal stability (rat); format: in vitro ADME; details: liver microsomes 0.5 mg/mL; method gives CLint in μL/min/mg protein
Protocol: (§1) The master solution was prepared as follows.
(§2) With NADPH: 10 μL of 20 mg/mL liver microsomes and 40 μL of 10 mM NADPH were added to the incubations. The final concentrations of microsomes and NADPH were 0.5 mg/mL and 1 mM, respectively.
(§3) Without NADPH: 10 μL of 20 mg/mL liver microsomes and 40 μL of ultra-pure H2O were added to the incubations. The final concentration of microsomes was 0.5 mg/mL.
(§4) The reaction was started with the addition of 4 μL of 3, 10, 30 and 100 μM test compound solution or control compound solution at the final concentration of 0.03, 0.1, 0.3 and 1 μM and carried out at 37° C.
(§5) Aliquots of 50 μL were taken from the reaction solution at 0, 15, 30, 45 and 60 min. The reaction was stopped by the addition of 4 volumes of cold acetonitrile with IS (100 nM alprazolam, 200 nM labetalol, 200 nM caffeine and 2 μM ketoprofen). Samples were centrifuged at 3, 220 g for 40 minutes. Aliquot of 100 μL of the supernatant was mixed with 100 μL of ultra-pure H2O and then used for LC-MS/MS analysis.
(§6) Peak areas were determined from extracted ion chromatograms. The slope value, k, was determined by linear regression of the natural logarithm of the remaining percentage of the parent drug vs. incubation time curve.
(§7) The in vitro half-life (in vitro t1/2) was determined from the slope value: in vitro t1/2=−(0.693/k) […]

[2] = Microsomal stability (human); format: in vitro ADME; details: liver microsomes 0.5 mg/mL; method gives CLint in μL/min/mg protein
Protocol: as §1, §2, §3, §4, §5, §6, §7

[3] = Microsomal stability (dog); format: in vitro ADME; details: liver microsomes 0.5 mg/mL; method gives CLint in μL/min/mg protein
Protocol: as §1, §2, §3, §4, §5, §6, §7

[4] = target: β2 adrenergic receptors in human astrocytoma cells (1321N1) (Homo sapiens (Human), UniProt P07550); assay: cAMP HTRF assay in human astrocytoma cells (1321N1); format: cell-based; details: Endogenous receptor, 1321N1 cells
Summary of the method: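 Intracellular cAMP quantified by Eu-donor/d2-acceptor HTRF after 30 min compound exposure at 37° C in stimulation buffer with IBMX. Concentrations ran 10 μM top, 5-fold steps, 10 points. Cell lines: 1321N1 astrocytoma and CHO expressing β1 or β2; EC50 via four-parameter fit, relative efficacy against isoproterenol.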

B3-AR = B3-AR (Homo sapiens (Human), UniProt P13945); assay: cAMP potency assay, B3-AR expressing CHO-K1 cells; format: cell-based
[5] = read-out: Average pEC50 [Receptor subtype: B3-AR, Cell type: CHO-K1] (converted)

β2 adrenergic receptors in human astrocytoma cells (1321N1), sequence (P07550 whole entry): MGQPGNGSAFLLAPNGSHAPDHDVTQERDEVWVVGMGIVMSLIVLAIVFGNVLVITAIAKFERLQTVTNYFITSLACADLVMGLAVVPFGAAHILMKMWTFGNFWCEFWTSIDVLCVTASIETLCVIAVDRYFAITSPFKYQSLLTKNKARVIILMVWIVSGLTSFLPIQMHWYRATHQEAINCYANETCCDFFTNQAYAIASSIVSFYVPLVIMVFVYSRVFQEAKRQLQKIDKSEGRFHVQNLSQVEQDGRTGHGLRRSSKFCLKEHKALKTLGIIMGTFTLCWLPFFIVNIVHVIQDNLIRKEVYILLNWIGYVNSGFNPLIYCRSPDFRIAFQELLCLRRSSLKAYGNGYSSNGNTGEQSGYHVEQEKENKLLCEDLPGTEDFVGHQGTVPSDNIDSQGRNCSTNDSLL
B3-AR, sequence (P13945 whole entry, species assumed): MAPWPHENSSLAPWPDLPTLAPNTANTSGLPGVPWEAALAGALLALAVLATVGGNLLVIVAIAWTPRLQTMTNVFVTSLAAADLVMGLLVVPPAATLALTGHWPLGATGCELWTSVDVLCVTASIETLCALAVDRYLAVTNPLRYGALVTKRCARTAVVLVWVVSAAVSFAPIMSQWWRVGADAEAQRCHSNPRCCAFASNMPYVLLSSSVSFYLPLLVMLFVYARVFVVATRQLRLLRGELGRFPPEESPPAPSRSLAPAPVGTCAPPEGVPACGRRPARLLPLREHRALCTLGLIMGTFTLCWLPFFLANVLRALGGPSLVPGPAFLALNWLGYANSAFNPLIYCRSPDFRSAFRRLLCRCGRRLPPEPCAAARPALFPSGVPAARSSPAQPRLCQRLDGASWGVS

Row | Average pEC50 [Receptor subtype: Endogenous; Cell type: 1321N1] [4] | EC50 ([4]; read-out: Average EC50 [Receptor subtype: Endogenous, Cell type: 1321N1]) [nM] | EC50 (B3-AR; read-out: Average EC50 [Receptor subtype: B3-AR, Cell type: CHO-K1]) [nM] | SMILES | Microsomal stability, Rat [1] [µL/min/mg protein] | Microsomal stability, Human [2] [µL/min/mg protein] | Intrinsic clearance (CLint), dog liver microsomes [3] [µL/min/mg protein] | EC50 (B3-AR; [5]) [nM] | EC50 ([4]; read-out: Average pEC50 [Receptor subtype: Endogenous, Cell type: 1321N1] (converted)) [nM]
1 |  |  |  | CC(C)(C)NC[C@H](O)c1cccc(C(F)(F)F)n1 [Compound 03-3] | 3.48 | 3.49 | 7.99 |  | 
2 | C-B | 10 to 100 | 100 to 1000 | CC(C)(C)NC[C@H](O)c1cccc(C#N)n1 [Compound 03-5, (S)-6-(2-(tert-butylamino)-1-hydroxyethyl)picolinonitrile] | 2.53 | 2.96 | 4.32 | > 1000 | 
3 |  |  |  | Cc1ncccc1[C@@H](O)CNC(C)(C)C [Compound 03-115] |  |  |  | > 1000 | 100 to 1000
